Results from ChEMBL document CHEMBL1132477, “Design and synthesis of novel alpha(1)(a) adrenoceptor-selective antagonists. 2. Approaches to eliminate opioid agonist metabolites via modification of linker and 4-methoxycarbonyl-4-phenylpiperidine moiety” (J Med Chem, 1999).

Tests used:
[1] = target: T1, Alpha-1A adrenergic receptor (Homo sapiens, UniProt P35348); experiment: In vitro binding affinity against alpha-1A adrenergic receptor of human clones
T1 sequence (P35348 whole entry): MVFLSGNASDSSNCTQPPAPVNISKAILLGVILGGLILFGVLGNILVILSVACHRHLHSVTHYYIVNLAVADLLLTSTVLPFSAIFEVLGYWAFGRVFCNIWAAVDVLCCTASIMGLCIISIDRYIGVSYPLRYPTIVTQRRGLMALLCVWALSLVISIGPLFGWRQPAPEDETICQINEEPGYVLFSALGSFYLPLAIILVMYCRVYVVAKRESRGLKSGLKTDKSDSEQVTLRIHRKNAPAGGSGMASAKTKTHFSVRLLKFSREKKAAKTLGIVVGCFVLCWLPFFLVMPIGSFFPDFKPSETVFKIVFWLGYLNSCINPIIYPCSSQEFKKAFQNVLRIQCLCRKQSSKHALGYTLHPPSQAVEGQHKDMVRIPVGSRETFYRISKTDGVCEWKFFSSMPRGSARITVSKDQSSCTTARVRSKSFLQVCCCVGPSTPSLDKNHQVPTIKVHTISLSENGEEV

[2] = target: T2, Alpha-1D adrenergic receptor (Homo sapiens, UniProt P25100); experiment: In vitro binding affinity against alpha-1D adrenergic receptor (cloned human).
T2 sequence (P25100 whole entry): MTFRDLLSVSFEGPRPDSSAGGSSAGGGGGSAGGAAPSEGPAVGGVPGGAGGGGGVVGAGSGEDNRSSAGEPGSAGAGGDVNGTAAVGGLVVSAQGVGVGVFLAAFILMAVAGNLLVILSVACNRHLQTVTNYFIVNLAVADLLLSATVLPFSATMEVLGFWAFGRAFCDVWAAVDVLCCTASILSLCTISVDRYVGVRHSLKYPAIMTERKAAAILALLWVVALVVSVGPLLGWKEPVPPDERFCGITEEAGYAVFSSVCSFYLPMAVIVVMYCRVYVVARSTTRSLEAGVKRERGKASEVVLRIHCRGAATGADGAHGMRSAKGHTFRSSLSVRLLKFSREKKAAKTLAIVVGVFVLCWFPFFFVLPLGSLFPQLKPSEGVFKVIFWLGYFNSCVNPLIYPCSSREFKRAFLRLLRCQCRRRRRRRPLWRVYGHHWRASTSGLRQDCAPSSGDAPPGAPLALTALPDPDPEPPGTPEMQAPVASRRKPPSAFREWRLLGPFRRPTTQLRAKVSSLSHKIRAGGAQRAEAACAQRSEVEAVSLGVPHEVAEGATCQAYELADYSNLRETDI

[3] = target: T3, Alpha-1B adrenergic receptor (Homo sapiens, UniProt P35368); experiment: In vitro binding affinity against Alpha-1B adrenergic receptor cloned from human.
T3 sequence (P35368 whole entry): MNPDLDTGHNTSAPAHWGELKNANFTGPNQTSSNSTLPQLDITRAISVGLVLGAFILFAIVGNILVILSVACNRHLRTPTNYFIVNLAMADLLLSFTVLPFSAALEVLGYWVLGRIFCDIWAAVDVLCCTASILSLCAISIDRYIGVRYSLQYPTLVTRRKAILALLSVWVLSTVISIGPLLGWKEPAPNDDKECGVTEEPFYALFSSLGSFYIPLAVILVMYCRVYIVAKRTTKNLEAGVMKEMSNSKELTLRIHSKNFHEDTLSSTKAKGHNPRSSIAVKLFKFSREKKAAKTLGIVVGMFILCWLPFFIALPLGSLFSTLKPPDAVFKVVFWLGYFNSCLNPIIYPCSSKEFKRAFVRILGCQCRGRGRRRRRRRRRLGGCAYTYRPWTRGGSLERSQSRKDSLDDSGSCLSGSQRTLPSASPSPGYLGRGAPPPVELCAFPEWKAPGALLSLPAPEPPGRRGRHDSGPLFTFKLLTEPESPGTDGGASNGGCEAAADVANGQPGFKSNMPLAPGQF

Mu-type opioid receptor = Mu-type opioid receptor (Homo sapiens, UniProt P35372); experiment: Inhibitory concentration against Opioid receptor mu 1 using [3H]DAMGO ligand
Mu-type opioid receptor, sequence (P35372 whole entry): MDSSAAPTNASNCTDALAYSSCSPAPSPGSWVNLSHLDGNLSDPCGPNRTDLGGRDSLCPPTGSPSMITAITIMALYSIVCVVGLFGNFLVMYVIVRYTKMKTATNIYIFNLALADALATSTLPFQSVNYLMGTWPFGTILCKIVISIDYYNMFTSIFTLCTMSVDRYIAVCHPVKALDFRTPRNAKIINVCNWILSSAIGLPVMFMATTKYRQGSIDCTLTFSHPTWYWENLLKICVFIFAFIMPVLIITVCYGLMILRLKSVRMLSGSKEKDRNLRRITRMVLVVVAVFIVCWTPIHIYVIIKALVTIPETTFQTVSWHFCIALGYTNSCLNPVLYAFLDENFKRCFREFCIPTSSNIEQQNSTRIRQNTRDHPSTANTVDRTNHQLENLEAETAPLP

| Structure (SMILES) | Ki [1] | Ki [2] | Ki [3] | IC50 (Mu-type opioid receptor) |
| --- | --- | --- | --- | --- |
| COCC1=C(C(=O)OC)C(c2cc(F)c(F)c(F)c2)N(C(=O)N2CCC(N3CCC(C(=O)OC)(c4ccccc4)CC3)CC2)C(=O)N1 (stereo not given) | 1.7 nM | 5370 nM | 3130 nM | – |
| COCC1=C(C(=O)OC)C(c2ccc(F)c(F)c2)N(C(=O)NCCCN2CCC(C#N)(c3ccccc3F)CC2)C(=O)N1 (stereo not given) | 5.2 nM | 930 nM | 730 nM | – |
| COC(=O)C1=C(C)NC(=O)N(C(=O)NCCCN2CCC(OC)(c3ccccc3)CC2)C1c1ccc(F)c(F)c1 (stereo not given) | 1 nM | 370 nM | 250 nM | – |
| Cc1ccc(C2(c3ccccc3C)CCNCC2)cc1 | – | – | – | 6000 nM |
| COC(=O)C1=C(C)NC(=O)N(C(=O)N2CCC(N3CCC(C(=O)OC)(c4ccccc4)CC3)CC2)C1c1ccc(F)c(F)c1 (stereo not given) | 19 nM | 2260 nM | 1940 nM | – |
| COC(=O)C1=C(C)NC(=O)N(C(=O)NCCCN2CCC(c3ccc(C)cc3)(c3ccccc3C)CC2)C1c1ccc(F)c(F)c1 (stereo not given) | 0.06 nM | 250 nM | 80 nM | – |
| COC(=O)C1=C(C)NC(=O)N(C(=O)NCCCN2CCC3(CC2)OCc2ccccc23)C1c1ccc(F)c(F)c1 (stereo not given) | 0.3 nM | 210 nM | 400 nM | – |
| COC(=O)C1=C(C)NC(=O)N(C(=O)NCCCN2CCC(c3cc(C)cc(C)c3)(c3cc(C)cc(C)c3)CC2)C1c1ccc(F)c(F)c1 (stereo not given) | 4.6 nM | 750 nM | 860 nM | – |
| CCC1=C(C(N)=O)C(c2ccc(F)cc2F)N(C(=O)NCCCN2CCC(C(=O)OC)(c3ccccc3)CC2)C(=O)N1 (stereo not given) | 0.2 nM | 340 nM | 220 nM | – |
| COC(=O)C1=C(C)NC(=O)N(C(=O)NCCCN2CCC(c3ccccc3)CC2)C1c1ccc(F)c(F)c1 (stereo not given) | 0.2 nM | 150 nM | 36 nM | – |
| COC(=O)C1=C(C)NC(=O)N(C(=O)NCCCN2CCC3(CC2)OCCc2ccccc23)C1c1ccc(F)c(F)c1 (stereo not given) | 0.2 nM | 620 nM | 490 nM | – |
| COC(=O)C1=C(C)NC(=O)N(C(=O)NCCCN2CCC3(CCc4ccccc43)CC2)C1c1ccc(F)c(F)c1 (stereo not given) | 1.1 nM | 230 nM | 410 nM | – |
| COC(=O)C1=C(C)NC(=O)N(CC(=O)NCCN2CCC(C(=O)OC)(c3ccccc3)CC2)C1c1ccc(F)c(F)c1 (stereo not given) | 0.2 nM | 610 nM | 1050 nM | – |
| COC(=O)C1=C(C)NC(=O)N(C(=O)NCCCN2CCC3(CCCc4ccccc43)CC2)C1c1ccc(F)c(F)c1 (stereo not given) | 0.4 nM | 910 nM | 310 nM | – |
| CCC1=C(C(N)=O)C(c2ccc(F)c(F)c2)N(C(=O)NCCC(C)N2CCC(C(=O)OC)(c3ccccc3)CC2)C(=O)N1 (stereo in doubt; 13) | 4.2 nM | 2100 nM | 1480 nM | – |
| c1ccc(C2(c3ccccc3)CCNCC2)cc1 | – | – | – | 17000 nM |
| COC(=O)C1=C(C)NC(=O)N(C(=O)NCCCN2CCC(c3ccc(F)cc3)(c3ccc(F)cc3)CC2)C1c1ccc(F)c(F)c1 (stereo not given) | 0.2 nM | 120 nM | 20 nM | – |
| CCC1=C(C(N)=O)C(c2ccc(F)c(F)c2)N(C(=O)NCCC(C)N2CCC(C(=O)OC)(c3ccccc3)CC2)C(=O)N1 (stereo in doubt; 14) | 58 nM | 2260 nM | 1450 nM | – |
